Starred links: 1 amine or outer side, 2 acyl side, 3 side chain; linkers in the order of their positions; H or OH if unused. Non-standard residues stand in square brackets, D forms with d. Residues, ends and D or L forms follow the SMILES beside them. *: point of attachment. Hexanoyl(5S-NH,4S-OH,6-Ph) = O=C(CC[C@H](O)[C@H](Cc1ccccc1)N[*:1])[*:2]; Isovaleryl = CC(C)CC(=O)*; Boc = CC(C)(C)OC(=O)*
Legend:
recombinant human renin = recombinant human renin (Homo sapiens (Human), UniProt P00797); assay: In-vitro fluorescence assay for identification of renin-inhibitory activity; format: biochemical; details: renin 10 nM, pH 7.2
Experimental: In order to identify modulators of renin activity, a continuous enzymatic test was carried out with a synthetic peptide which carries a fluorescent group Edans (=(5-(aminoethyl)aminonaphthalenesulfonate) which is quenched by energy transfer from a Dabcyl (4′-dimethylaminoazobenzene-4-carboxylate) group on the same molecule, in Greiner 384-well microtitre plates. Cleavage of the peptidic substrate by renin causes an increase in the fluorescence intensity. In order to determine the efficacy of substances, the time-dependent increase in the fluorescence intensity in the presence of the substance was compared with the time-dependent increase in fluorescence in the absence of substances. The reference substance used was renin inhibitor 2 (Z-Arg-Arg-Pro-Phe-His-Sta-Ile-His N-Boc-Lys methyl ester Z) (Sigma-Aldrich). The substrate used was renin FRET substrate I (DABCYL-g-Abu-Ile-His-Pro-Phe-His-Leu-Val-Ile-His-Thr EDANS) (Anaspec, Fremont Calif.). The enzyme employed was recombinant human renin (Proteos, Kalamazoo, Mich.) in a final concentration of 10 nM. The test was carried out in 50 mM Mops buffer, 1.5% (v/v) of DMSO, 0.1% (w/v) of Igepal®, pH 7.2, 0.5% (w/v) of BSA. 2 μl of each substance solution with serially diluted substance concentration were added to in each case 4 μl of renin solution and incubated at room temperature for 15 min. The reaction was started by addition of 4 μl of substrate solution (final concentration 5 μM). After carrying out a starting-point fluorescence measurement (excitation wavelength 340 nm/emission wavelength 495 nm) using an Envision multilabel reader (Perkin Elmer), the reaction was incubated at 37° C. for 60 min. The amount of peptide fragment cleaved off during the reaction time was subsequently measured by determination of the increase in the fluorescence intensity at 495 nm (excitation wavelength 340 nm).

[1] = biological target: cathepsin D isolated from the human liver (Homo sapiens (Human), UniProt P07339); assay: In-vitro fluorescence assay for identification of cathepsin D inhibitors; format: biochemical; details: cathepsin D 1.4 nM, pH 5.5; values in E notation; read-out: Cath D IC50
Experimental: In order to identify modulators of cathepsin D activity, a continuous enzymatic test was carried out with a synthetic peptide which carries a fluorescent group (MCA=(7-methoxycoumarin-4-yl)acetyl) which is quenched by energy transfer from a Dpn (2,4 dinitrophenyl) group on the same molecule, in Greiner 384-well nb microtitre plates. Cleavage of the peptidic substrate by cathepsin D causes an increase in the fluorescence intensity. In order to determine the efficacy of substances, the time-dependent increase in the fluorescence intensity in the presence of the substance was compared with the time-dependent increase in fluorescence in the absence of substances. The reference substance used was pepstatin A (Sigma-Aldrich). The substrate used was MCA-GKPILFFRLK(Dnp)d-R—NH2 (Enzo Life Sciences, Lor-rach). The enzyme employed was cathepsin D isolated from the human liver (Sigma-Aldrich) in a final concentration of 1.4 nM. The test was carried out in 100 mM sodium acetate buffer, 1.25% (v/v) of DMSO, 0.25% (w/v) of Chaps, pH 5.5. 2 μl of each substance solution with serially diluted substance concentration were added to in each case 4 μl of cathepsin D solution and incubated at room temperature for 10 min. The reaction was started by addition of 2 μl of substrate solution (final concentration 5 μM). After carrying out a starting-point fluorescence measurement (excitation wavelength 340 nm/emission wavelength 450 nm) using an Envision multilabel reader (Perkin Elmer), the reaction was incubated at room temperature for 60 min. The amount of peptide fragment cleaved off during the reaction time was subsequently measured by determination of the increase in the fluorescence intensity at 450 nm (excitation wavelength 340 nm).
The IC50 values of the compounds according to the invention can be obtained from Table 2 from Example 1.

Chain of cathepsin D isolated from the human liver (P07339 65-161): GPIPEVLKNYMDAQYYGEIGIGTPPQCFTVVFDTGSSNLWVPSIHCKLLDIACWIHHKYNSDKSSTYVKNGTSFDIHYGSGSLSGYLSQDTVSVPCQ
Chain of cathepsin D isolated from the human liver (P07339 169-412): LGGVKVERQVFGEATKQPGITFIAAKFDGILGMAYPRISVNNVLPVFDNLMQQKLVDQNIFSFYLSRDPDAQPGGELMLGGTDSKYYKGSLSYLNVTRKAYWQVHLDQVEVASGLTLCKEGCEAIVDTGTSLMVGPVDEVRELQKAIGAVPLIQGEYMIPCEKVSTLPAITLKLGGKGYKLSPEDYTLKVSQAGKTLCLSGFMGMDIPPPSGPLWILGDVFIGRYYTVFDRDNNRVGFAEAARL
Chain of recombinant human renin (P00797 67-406): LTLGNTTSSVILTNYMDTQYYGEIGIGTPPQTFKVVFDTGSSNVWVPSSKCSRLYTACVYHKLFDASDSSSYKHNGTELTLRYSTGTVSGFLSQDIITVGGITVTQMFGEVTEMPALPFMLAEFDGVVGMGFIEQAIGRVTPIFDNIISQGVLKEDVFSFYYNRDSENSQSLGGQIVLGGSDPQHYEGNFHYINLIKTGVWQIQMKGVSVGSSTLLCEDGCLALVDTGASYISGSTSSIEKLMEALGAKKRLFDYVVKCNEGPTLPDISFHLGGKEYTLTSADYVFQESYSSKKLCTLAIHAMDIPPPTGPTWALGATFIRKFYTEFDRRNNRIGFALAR

Row | IC50 (recombinant human renin) [µM] | SMILES | IC50 (recombinant human renin; values in E notation) [µM] | IC50 [1] [µM]
1 | > 30 | COc1ccc(CC(=O)N[C@H](C(=O)N[C@@H](Cc2ccccc2)[C@@H](O)CCC(=O)NCCc2ccccc2)C(C)C)cc1OC [Compound A5, (4S,5S)-5-{(S)-2-[2-(3,4-Dimethoxyphenyl)acetylamino]-3-methylbutyryl-amino}-4-hydroxy-6-phenylhexanoic acid phenethylamide] | – | –
2 | > 30 | CCOc1cccc(CC(=O)N[C@H](C(=O)N[C@@H](Cc2ccccc2)[C@@H](O)CCC(=O)NCCc2ccccc2)C(C)C)c1 [Compound A19, (4S,5S)-5-{(S)-2-[2-(3-Ethoxyphenyl)acetylamino]-3-methylbutyrylamino}-4-hydroxy-6-phenylhexanoic acid phenethylamide] | – | –
3 | > 30 | Cc1ccc(OCC(=O)N[C@H](C(=O)N[C@@H](Cc2ccccc2)[C@@H](O)CCC(=O)NCCc2ccccc2)C(C)C)cc1C [Compound A10, (4S,5S)-5-{(S)-2-[2-(3,4-Dimethylphenoxy)acetylamino]-3-methylbutyryl-amino}-4-hydroxy-6-phenylhexanoic acid phenethylamide] | – | –
4 | > 30 | COc1ccc(OC(F)(F)F)cc1CC(=O)N[C@H](C(=O)N[C@@H](Cc1ccccc1)[C@@H](O)CCC(=O)NCCc1ccccc1)C(C)C [Compound A4, (4S,5S)-4-Hydroxy-5-{(S)-2-[2-(2-methoxy-5-trifluoromethoxyphenyl)-acetylamino]-3-methylbutyrylamino}-6-phenylhexanoic acid phenethyl-amide] | – | 4
5 | > 30 | CC(C)[C@H](NC(=O)Cc1cccc(Oc2ccccc2)c1)C(=O)N[C@@H](Cc1ccccc1)[C@@H](O)CCC(=O)NCCc1ccccc1 [Compound A6, (4S,5S)-4-Hydroxy-5-{(S)-3-methyl-2-[2-(3-phenoxyphenyl)acetylamino]-butyrylamino}-6-phenylhexanoic acid phenethylamide] | – | 12
6 | > 30 | COc1ccc(CC(=O)N[C@H](C(=O)N[C@@H](Cc2ccccc2)[C@@H](O)CCC(=O)NCCc2ccccc2)C(C)C)cc1 [Compound A7, (4S,5S)-4-Hydroxy-5-{(S)-2-[2-(4-methoxyphenyl)acetylamino]-3-methyl-butyrylamino}-6-phenylhexanoic acid phenethylamide] | – | –
7 | > 30 | COc1ccccc1CC(=O)N[C@H](C(=O)N[C@@H](Cc1ccccc1)[C@@H](O)CCC(=O)NCCc1ccccc1)C(C)C [Compound A9, (4S,5S)-4-Hydroxy-5-{(S)-2-[2-(2-methoxyphenyl)acetylamino]-3-methyl-butyrylamino}-6-phenylhexanoic acid phenethylamide] | – | –
8 | > 30 | CC(C)[C@H](NC(=O)CCCc1ccccc1)C(=O)N[C@@H](Cc1ccccc1)[C@@H](O)CCC(=O)NCCc1ccccc1 [Compound A20, (4S,5S)-4-Hydroxy-5-[(S)-3-methyl-2-(4-phenylbutyrylamino)butyryl-amino]-6-phenylhexanoic acid phenethylamide] | – | –
9 | > 30 | CC(C)[C@H](NC(=O)Cc1cccc(OC(F)(F)F)c1)C(=O)N[C@@H](Cc1ccccc1)[C@@H](O)CCC(=O)NCCc1ccccc1 [Compound A3, (4S,5S)-4-Hydroxy-5-{(S)-3-methyl-2-[2-(3-trifluoromethoxyphenyl)-acetylamino]butyrylamino}-6-phenylhexanoic acid phenethylamide] | – | –
10 | > 30 | COc1cccc(CC(=O)N[C@H](C(=O)N[C@@H](Cc2ccccc2)[C@@H](O)CCC(=O)NCCc2ccccc2)C(C)C)c1 [Compound A8, (4S,5S)-4-Hydroxy-5-{(S)-2-[2-(3-methoxyphenyl)acetylamino]-3-methyl-butyrylamino}-6-phenylhexanoic acid phenethylamide] | – | –

More lines, now with the values behind:

Row | SMILES | IC50 (recombinant human renin) [µM] | IC50 (recombinant human renin; values in E notation) [µM] | IC50 [1] [µM]
11 | Cc1cccc(C)c1NC(=O)CC[C@H](O)[C@H](Cc1ccccc1)NC(=O)[C@@H](NC(=O)Cc1cccc(Oc2ccccc2)c1)C(C)C [Compound A14, (4S,5S)-4-Hydroxy-5-{(S)-3-methyl-2-[2-(3-phenoxyphenyl)acetylamino]-butyrylamino}-6-phenylhexanoic acid (2,6-dimethylphenyl)amide] | > 30 | – | –
12 | CC[C@H](C)[C@H](NC(=O)CC[C@H](O)[C@H](Cc1ccccc1)NC(=O)[C@@H](NC(=O)[C@H](CC(C)C)NC(=O)OC(C)(C)C)C(C)C)C(=O)NCc1cnc(C)nc1N [Compound A1, {(S)-1-[(S)-1-((1S,2S)-4-{(1S,2S)-1-[(4-Amino-2-methylpyrimidin-5-yl-methyl)carbamoyl]-2-methylbutylcarbamoyl}-1-benzyl-2-hydroxybutyl-carbamoyl)-2-methylpropylcarbamoyl]-3-methylbutyl}carbamic acid tert-butyl ester] | – | 0.32 | 0.43
13 | CC(C)[C@H](NC(=O)Cc1cccc2ccccc12)C(=O)N[C@@H](Cc1ccccc1)[C@@H](O)CCC(=O)NCCc1ccccc1 [Compound A12, (4S,5S)-4-Hydroxy-5-[(S)-3-methyl-2-(2-naphthalen-1-ylacetylamino)-butyrylamino]-6-phenylhexanoic acid phenethylamide] | > 30 | – | –
14 | COC(=O)[C@@H](NC(=O)[C@H](Cc1ccccc1)NC(=O)CC[C@H](O)[C@H](Cc1ccccc1)NC(=O)[C@@H](NC(=O)[C@H](CC(C)C)NC(=O)CC(C)C)C(C)C)C(C)C [Compound A17, (S)-2-[(S)-2-((4S,5S)-4-Hydroxy-5-{(S)-3-methyl-2-[(S)-4-methyl-2-(3-methylbutyrylamino)pentanoylamino]butyrylamino}-6-phenylhexanoyl-amino)-3-phenylpropionylamino]-3-methylbutyric acid methyl ester] (Isovaleryl-LV[Hexanoyl(5S-NH,4S-OH,6-Ph)]FV-OMe) | > 30 | – | 0.255
15 | CC(C)[C@H](NC(=O)Cc1cccc(Oc2ccccc2)c1)C(=O)N[C@@H](Cc1ccccc1)[C@@H](O)CCC(=O)NCc1ccccc1 [Compound A15, (4S,5S)-4-Hydroxy-5-{(S)-3-methyl-2-[2-(3-phenoxyphenyl)acetylamino]-butyrylamino}-6-phenylhexanoic acid benzylamide] | > 30 | – | –
16 | CC[C@H](C)[C@H](NC(=O)CC[C@H](O)[C@H](Cc1ccccc1)NC(=O)[C@@H](NC(=O)[C@H](CC(C)C)NC(=O)OC(C)(C)C)C(C)C)C(=O)N[C@H](C(=O)OC)C(C)C [Compound A2, (S)-2-((2S,3S)-2-{(4S,5S)-5-[(S)-2-((S)-2-tert-Butoxycarbonylamino-4-methylpentanoylamino)-3-methylbutyrylamino]-4-hydroxy-6-phenyl-hexanoylamino}-3-methylpentanoylamino)-3-methylbutyric acid methyl ester] (Boc-LV[Hexanoyl(5S-NH,4S-OH,6-Ph)]IV-OMe) | – | 1.1 | 0.041
17 | CC(C)[C@H](NC(=O)C(c1ccccc1)c1ccccc1)C(=O)N[C@@H](Cc1ccccc1)[C@@H](O)CCC(=O)NCCc1ccccc1 [Compound A13, (4S,5S)-5-((S)-2-Diphenylacetylamino-3-methylbutyrylamino)-4-hydroxy-6-phenylhexanoic acid phenethylamide] | > 30 | – | 4.3
18 | CC(C)[C@H](NC(=O)Cc1cccc(Oc2ccccc2)c1)C(=O)N[C@@H](Cc1ccccc1)[C@@H](O)CCC(=O)N1CCc2ccccc21 [Compound A16, (S)-N-[(1S,2S)-1-Benzyl-5-(2,3-dihydroindol-1-yl)-2-hydroxy-5-oxopentyl]-3-methyl-2-[2-(3-phenoxyphenyl)acetylamino]butyramide] | > 30 | – | –
